# According to patent publication US8815900B2, “Compounds and compositions for reducing lipid levels” (CVI Pharmaceuticals Limited, priority 2007, dated 2014):
# Counter-ions that a name gives are not always drawn.
# Legend:
# [1] = tested on: LDLR mRNA expression in HepG2 cells; assay: LDLR mRNA expression in HepG2 cells, quantitative real-time RT-PCR; type: cell-based, Human; conditions: 24 hours; for Activity on LDLR mRNA expression (Fold of control): dose less than or equal to 10 μM
# Experimental: In yet another experiment, HepG2 cells were treated with various compounds for 24 hours at the indicated doses. Total RNA was isolated and 2 μg was used to generate cDNA in a reaction containing random primers and M-MLV at 37° C. for 1 hour in a volume of […] Real-time PCR was performed on the cDNA using MCEP REALPLEX 2 SYSTEM (Eppendorf) and Universal MasterMix (Applied Biosystems). Human LDLR and GAPDH Pre-Developed TaqMan Assay Reagents (Applied Biosystems) were used to assess the levels of mRNA expressions in HepG2. The levels of LDLR mRNA were normalized to that of GAPDH. Each RNA samples was assayed in triplicate. The abundance of LDLR mRNA in untreated cells was defined as 1, and the amounts of LDLR mRNA from compound-treated cells were plotted relative to that value in FIG. 13. The data shown are mean±s.d.
# Activities of some compounds of Formulas I, II, III, and IV on LDLR mRNA expression were determined. HepG2 cells were treated with new compounds individually at a dose less than or equal to 10 μM for 24 hours. Total RNA was harvested for quantitative real-time RT-PCR analysis using the method described in Example 16B. […] In these experiments, berberine chloride was included for comparison.
# Quantitative real-time RT-PCR was conducted, and triplicate was assayed in each RNA sample. The data are mean value of triplicates.
# Total RNA was harvested for quantitative real-time RT-PCR analysis using method described in Examples 16B.
# [2] = tested on: LDLR ligand uptake activity in HepG2 cells; assay: DiI-LDL uptake (LDLR ligand uptake activity) in HepG2 cells; type: cell-based, Human; conditions: 20 hours; note: key: +: slightly increased fluorescent intensity over control; ++: modestly increased fluorescent intensity over control; +++: strongly increased fluorescent intensity over control
# Experimental: HepG2 cells (2×10^5 cells/well) in 24-well culture plates were treated with various compounds at indicated concentrations for 20 hours. The fluorescent 1,1′-dioctadecyl-3,3,3′,3′-tetramethylindocarbocyanin perchlorate (DiI-LDL) (Biomedical Technologies, Stoughton, Mass.) at a concentration of 2 μg/mL was added to cells at the end of treatment. After 4 hours, the medium was removed, cells were washed with cold PBS, and were examined immediately under a fluorescent microscope (Nikon) at 200× amplification. The fluorescent intensity in compound-treated cells was compared to that in untreated control cells. […] In these experiments berberine chloride was used for comparison.
# [3] = tested on: LDLR mRNA expression in HepG2 cells; assay: LDLR mRNA expression in HepG2 cells, semi-quantitative RT-PCR; type: cell-based, Human; conditions: 8 hours, indicated doses, corrected by GAPDH mRNA (FIG. 3)
# Experimental: HepG2 cells obtained from American Tissue Culture Collection (Manassas, Va., USA) were seeded in 6-well culture plates at a density of 0.8×10^6 cells/well cultured in EMEM containing 0.5% FBS and were treated with each purified compound at indicated doses for 8 hours. Total RNA was isolated, and 2 μg per sample was reverse transcribed with random primers using M-MLV (Promega) at 37° C. for 1 hour. PCR was carried out at 94° C. for 30 sec, 60° C. for 30 sec, and 72° C. for 30 sec with initial activation of the enzyme at 94° C. for 1 minute. Thirty cycles were performed for LDLR and GAPDH. PCR was performed using primers HLDLR-up and HLDLR-lo for LDLR and primers HGAPDH-up and HGAPDH-lo for GAPDH. The PCR products were separated on a 1% agarose gel and the band intensity was quantitated. LDLR mRNA levels were corrected by measuring GAPDH mRNA levels.
# After the treatment, a portion of cells was harvested for total RNA, and another portion of cells was used for TG measurement. The LDLR mRNA levels were assessed by semi quantitative RT-PCR, and the cellular TG content was determined as described above.
# [4] = tested on: hypercholesterolemic hamsters; assay: In vivo lipid lowering of (14R)-THP in hamsters on high cholesterol diet; parameters: species or system Golden Syrian male hamsters; conditions: 12 mg/kg daily i.p., 34 days
# Description: To determine whether the induction of hepatic LDLR expression by corydalis-derived compounds would result in total cholesterol (TC) and LDL-cholesterol (LDL-c) reductions in plasma, hypercholesterolemic hamsters were used as an animal model. In one experiment, 10 Golden Syrian male hamsters under a high cholesterol (HC) diet were divided into 2 groups.
# [5] = Stability of compound 69 under cell culture conditions (LC-MS of medium); type: in vitro ADME; conditions: HepG2 culture medium, 20 μM
# Experimental: HepG2 cells were cultured in 6-well cell culture plate in EMEM containing 0.5% FBS overnight. Compound 69+ was added to the culture medium to a final concentration of 20 μM. Medium was collected at 0 (control), 4, 8, or 24 hours after the compound addition.
# The collected media were analyzed by LC-MS on a Thermo Fisher Scientific Surveyor HPLC system and LCQ ion trap MS with electrospray ionization source. A 50×2.1 mm Hypersil Gold C18 3 um column was used with a flow rate of 200 uL/min. The method conditions were 98% A (0.1% formic acid in water)/2% B (0.1% formic acid in acetonitrile) then a gradient to 95% B in 10 minutes. The injection volume was 10 uL.
# [6] = tested on: Wister male rats under a high fat and high cholesterol diet; assay: Lipid lowering and body weight effects of (14R,13S)-CRDL hydrochloride salt in Wister rats; type: in vivo
# Experimental: Male Wister rats were used as another animal model to examine the in vivo effects of (14R,13S)-CRDL in plasma lipid levels.
# In one experiment, 18 Wister male rats under a high fat and high cholesterol diet were divided into 2 groups. One group was given (14R,13S)-CRDL hydrochloride salt orally at a daily dose of 75 mg/kg by an orogastric tube for 4 weeks, and the control group received daily treatment of equal amount of vehicle (0.1 M sodium phosphate, pH 3.5). Serum lipid levels were measured weekly.
# At the end of treatment, Rats were sacrificed and blood and sera were collected to measure several critical parameters for liver function and kidney function. […] Kidney function and blood glucose level were not changed by the treatment (FIG. 11E).
# The food intake and body weight gains were measured every week during the 4-week treatment period. […] In the first week, the amount of food consumed was decreased in CRDL-treated group. […] The ability of CRDL to activate AMPK signaling pathway to increase energy expenditure and to reduce fat accumulation likely contributes to this weight reducing effect.
# [7] = HC diet, compared to untreated control group
# [8] = (14R,13S)-CRDL hydrochloride salt orally 75 mg/kg daily, 4 weeks
# [9] = end of 4-week treatment, 75 mg/kg daily orally
compound,measurement,setting,value
"COc1ccc2c(c1OC(=O)Nc1ccccc1)CN1CCc3cc4c(cc3C1C2)OCO4 (stereo not shown) [Compound 61, (10-methoxy (5,6,7,8,13,13a-hexahydro-2H-1,3-dioxolano[4,5-g]isoquinolino[3,2-a]isoquinolin-9-yloxy))-N-benzamide]",Activity on LDLR mRNA expression (Fold of control),[1],1.33 ± 0.53 Fold of control
"COc1ccc2c(c1OC(=O)Nc1cccc(C)c1)CN1CCc3cc4c(cc3C1C2)OCO4 (stereo not shown) [Compound 46, (10-methoxy (5,6,7,8,13,13a-hexahydro-2H-1,3-dioxolano[4,5-g]isoquinolino[3,2-a]isoquinolin-9-yloxy))-N-(3-methylphenyl) carboxamide]",Activity on LDLR mRNA expression (Fold of control),[1],1.80 ± 0.16 Fold of control
same,Activity on DiI-LDL uptake,"[2]; A, compound dose ≦ 10 μM",++
"COc1cc(NC(=O)Oc2c(OC)ccc3c2CN2CCc4cc5c(cc4C2C3)OCO5)cc(OC)c1 (stereo not shown) [Compound 45, N-(3,5-dimethoxyphenyl) (10-methoxy (5,6,7,8,13,13a-hexahydro-2H-1,3-dioxolano[4,5-g]isoquinolino[3,2-a]isoquinolin-9-yloxy)) carboxamide]",Activity on LDLR mRNA expression (Fold of control),[1],2.09 ± 0.11 Fold of control
same,Activity on DiI-LDL uptake,"[2]; A, compound dose ≦ 10 μM",++
"COc1ccc2c(c1OC(=O)NC(C)C)CN1CCc3cc4c(cc3C1C2)OCO4 (stereo not shown) [Compound 41, (10-methoxy (5,6,7,8,13,13a-hexahydro-2H-1,3-dioxolano[4,5-g]isoquinolino[3,2-a]isoquinolin-9-yloxy))-N-(methylethyl) carboxamide]",Activity on LDLR mRNA expression (Fold of control),[1],1.60 ± 0.03 Fold of control
same,Activity on DiI-LDL uptake,"[2]; A, compound dose ≦ 10 μM",++
"CN1CCc2cc3c(cc2[C@H]1[C@@H]1O[C@H](O)c2c1ccc1c2OCO1)OCO3 [d-(+)-EGN, (+)-egenine]",Activity on DiI-LDL uptake,"[2]; A, compound dose ≦ 10 μM",+
"COc1cc2c(cc1O)CCN1Cc3c(ccc(OC)c3OC)CC21 (stereo not drawn) [14R-(+)-CRPM, 14R-(+)-corypalmine]",LDLR mRNA expression,[3],potent and dose-dependent effects
same,Activity on DiI-LDL uptake,"[2]; A, compound dose ≦ 10 μM",++
"COc1ccc2c(c1OC(=O)N(C)C)CN1CCc3cc4c(cc3C1C2)OCO4 (stereo not shown) [Compound 43, (10-methoxy (5,6,7,8,13,13a-hexahydro-2H-1,3-dioxolano[4,5-g]isoquinolino[3,2-a]isoquinolin-9-yloxy))-N,N-dimethylcarboxamide]",Activity on LDLR mRNA expression (Fold of control),[1],1.95 ± 0.18 Fold of control
same,Activity on DiI-LDL uptake,"[2]; A, compound dose ≦ 10 μM",++
(+)-corlumidin [(+)-CLMD],LDLR mRNA expression,[3],potent and dose-dependent effects
same,Activity on DiI-LDL uptake,"[2]; B, compound dose ≦ 40 μM",+
"COc1cc2c(cc1OC)[C@H]1Cc3ccc(OC)c(OC)c3CN1CC2 [14R-(+)-THP, 14R-(+)-tetrahydropalmatine]",adverse effects during the treatment period,[4],No adverse effects were observed
same,reduction of plasma TC,[4]; [7],31.6%
same,reduction of plasma TG,[4]; [7],35.93%
same,reduction of plasma non-HDL-c,[4]; [7],35.95%
same,gains of body weight during the treatment period,[4]; vs control group,very similar
same,LDLR mRNA expression,[3],potent and dose-dependent effects
same,"LDLR mRNA expression, combined with statins",[1]; added to low dose simvastatin or fluvastatin (FIG. 17),further improved the stimulatory effects of statins
same,Activity on DiI-LDL uptake,"[2]; B, compound dose ≦ 40 μM",++
"COc1ccc2c(c1OS(=O)(=O)c1ccccc1)CN1CCc3cc4c(cc3C1C2)OCO4 (stereo not shown) [Compound 69, 9-benzene-sulfonyloxy-10-methoxy-5,8,13,13a-tetrahydro-6H-[1,3]dioxolo[4,5-g]isoquino[3,2-a] isoquinoline]",stability under cell culture conditions,[5]; up to 24 hours,fairly stable
same,Peak Area m/z 466.1,[5]; 0 hours (control),2.38e8
same,Peak Area m/z 466.1,[5]; 4 hours,9.67e7
same,Peak Area m/z 466.1,[5]; 8 hours,9.22e7
same,Peak Area m/z 466.1,[5]; 24 hours,7.03e7
"COc1cc2c(cc1OC)[C@H]1[C@@H](C)c3ccc(OC)c(OC)c3CN1CC2 [Compound 6, (13S,13aR)-2,3,9,10-tetramethoxy-13-methyl-5,6,7,8,13,13a-hexahydroiso-quinolino[2,1-b]isoquinoline hydrochloride]","LDL-c level, % of control",[6]; [8],25.6%
same,"LDL-c level, % of day 0",[6]; [8],22.4%
same,"TC, % compared to the control group",[6]; [8],33.8%
same,"TC, % of the pretreatment level",[6]; [8],33.0%
same,"TG level, % of the control",[6]; [8],29%
same,"TG level, % of the pretreatment level (day 0)",[6]; [8],27%
same,blood glucose level,[6]; [9],not changed
same,"kidney function (BUN, CREA)",[6]; [9],not changed
"CCOC(=O)Oc1c(OC)ccc2c1CN1CCc3cc4c(cc3C1C2)OCO4 (stereo not shown) [Compound 48, 10-methoxy-5,6,7,8,13,13a-hexahydro-2H-1,3-dioxolano[4,5-g]isoquinolino[3,2-a]isoquinolin-9-yl ethoxyformate]",Activity on LDLR mRNA expression (Fold of control),[1],1.45 ± 0.15 Fold of control
"COc1ccc2c(c1OC(=O)Nc1ccc(OC(F)(F)F)cc1)CN1CCc3cc4c(cc3C1C2)OCO4 (stereo not shown) [Compound 44, (10-methoxy (5,6,7,8,13,13a-hexahydro-2H-1,3-dioxolano[4,5-g]isoquinolino[3,2-a]isoquinolin-9-yloxy))-N-[4-(trifluoromethoxy)phenyl]car-boxamide]",Activity on LDLR mRNA expression (Fold of control),[1],2.20 ± 0.06 Fold of control
same,Activity on DiI-LDL uptake,"[2]; A, compound dose ≦ 10 μM",++
"COc1ccc2c(c1O)CN1CCc3cc4c(cc3C1C2)OCO4 (stereo not shown) [Compound 34, 10-methoxy-5,6,7,8,13,13a-hexahydro-2H-1,3-dioxolano[4,5-g]isoquinolino[3,2-a]isoquinolin-9-ol]",Activity on LDLR mRNA expression (Fold of control),[1],1.76 ± 0.17 Fold of control
same,Activity on DiI-LDL uptake,"[2]; A, compound dose ≦ 10 μM",++
